A short description of this data set: Solubility tests of monomer 1 in the monomer solution with auxiliary surfactants (additives). It is filed as physicochemical. The method, then: In order to solubilize monomer 1 the monomer was first dissolved in ethanol and then added to the monomer solution. This approach is used for AIBN, which has a low solubility in the monomer solution, too. […] Therefore, the use of auxiliary surfactants (additives) was tested.
These tests were done in first instance with 0.1 mol % of 1-4.

`C=C(C)C(=O)NCCC[N+](C)(C)CCCCCCCCCCCC` [Monomer 1]: the “Result (solubility of monomer 1)” value runs as follows: (Additive 1 Aromox C/12 2-20 eq, additive 2 Disponil A 1080 0-5 eq, same recipe) “Not soluble***”; (Additive 1 Aromox MCD 2-20 eq, additive 2 Disponil A 1080 0-5 eq, same recipe) “Not soluble***”; (Additive 1 C14TAB 2-20 eq, additive 2 Disponil A 1080 0-5 eq, same recipe) “Not soluble***”; (Additive 1 Dehyquart E-CA 2-20 eq, additive 2 Disponil A 1080 0-5 eq, same recipe) “Not soluble***”; (Additive 1 Deriphat 160 C 2-20 eq, additive 2 Disponil A 1080 0-5 eq, same recipe) “Not soluble***”; (Additive 1 Disponil A 1080 2-20 eq, no additive 2, same recipe) “Partly dissolved”. Moreover, the “Result (solubility of monomer 1)” value runs as follows: (Additive 1 Glucopon 225DK 2-20 eq, additive 2 Disponil A 1080 0-5 eq, same recipe) “Not soluble***”; (Additive 1 Lutensol AO 11 2-20 eq, additive 2 Disponil A 1080 0-5 eq, same recipe) “Not soluble***”; (Additive 1 Lutensol AT 18 2-20 eq, additive 2 Disponil A 1080 0-5 eq, same recipe) “Not soluble***”; (Additive 1 Lutensol TO 129 2-20 eq, additive 2 Disponil A 1080 0-5 eq, same recipe) “Not soluble***”; (Additive 1 Lutensol XP 100 2-20 eq, additive 2 Disponil A 1080 0-5 eq, same recipe) “Not soluble***”; (Additive 1 SDS 2-20 eq, additive 2 Disponil A 1080 0-5 eq, same recipe) “Not soluble***”. The “Result (solubility of monomer 1)” value is, setting by setting: (Additive 1 Texapon NSO 2-20 eq, additive 2 Disponil A 1080 0-5 eq, same recipe) “Not soluble***”; (no additive, recipe 27 mol % sodium acrylate, 72.9 mol % acrylamide, 0.1 mol % 1) “Not soluble***”.
